# From US20150004704A1, “COMPOSITIONS AND METHODS FOR INCREASING OIL CONTENT IN ALGAE” (A.B. Seeds Ltd., priority 2009, published 2015)
# Values joined by “and” are separate entries in the source; they are usually repeats but may differ in a detail not shown here. Identical values can stand only once.
# Tests used:
# Assay type in all cases: cell-based
# [1] = test system: Chlamydomonas reinhardtii; test: Cell density (OD 450 nm), C. reinhardtii with hormone supplements (Example 2); conditions: 1 week after addition, duplicates
# Method: (§1) Algae were grown to a concentration of 10^5 cells/ml and divided into 10×250-ml flasks, each containing 50 ml TAP medium with the following hormone supplements (all values are final hormone concentrations):
# (§2) IAA: 0.5 mg/liter and 1 mg/liter, NAA: 0.5 mg/liter and 1 mg/liter, 6-BAP: 0.05 mg/liter and 0.1 mg/liter, and Kinetin: 0.05 mg/liter and 0.1 mg/liter. No supplement was added to Controls 1 and 2.
# (§3) Oil content was measured, in duplicate, one week after addition of the hormones to the medium, using Nile Red staining. 200 μl of Chlamydomonas reinhardtii cells were placed in a 96-well plate (Costar 3596), mixed with 10 μl of Nile Red solution (N3013, Sigma. 1 mg/ml stock in acetone) and incubated for 15 minutes at room-temperature. Fluorescence was measured using a Thermo Electron Fluroskan Ascent with excitation at 544 nm and emission at 590 nm 200 μl of fresh growth media with 10 μl of Nile Red were used for blank measurements. Fluorescence was normalized against cell density as measured by an EL×808 microplate reader (BIOTEK Instruments Inc) at 450 nm and verified by cell count of selected samples.
# (§4) The growth rate in each flask was estimated by measuring the OD (optical density, at 450 nm), which represents cell density. For each treatment the normalized oil content was defined as the oil content divided by the cell density. The average of the normalized oil content of the duplicates for each treatment was calculated. The effect of each treatment was determined by the ratio between the average of the normalized oil content and the average of the two control experiments.
# [2] = test system: Chlamydomonas reinhardtii; test: Oil content by Nile Red staining, C. reinhardtii with hormone supplements (Example 2); parameters: Oil content: unit not given here; conditions: for Oil content: Nile Red fluorescence; for Oil content / Normalized oil content: duplicates; for Average normalized oil content: average of duplicates; for Normalized oil content: oil content divided by cell density; for Effect: ratio of average normalized oil content to average of two controls
# Method: (§5) TX, and were grown at 22° C. under constant white light at an intensity of 175 micromole photon m^−2 s−1. Chlamydomonas reinhardtii (UTEX strain 90), Chlorella vulgaris (UTEX 2714) and Haematococcus pluvialis (UTEX strain 2505) were grown in TAP medium {Harris E H: The Chlamydomonas sourcebook: A comprehensive guide to biology and laboratory use. New-York: Academic Press; 1989}. Phaeodactylum tricornutum (UTEX strain 642) was grown in a modified LDM medium {Lewin, R. A., 1959. The isolation of algae. Rev. algol. no. 3: 182-197}.
# as §1, §2, §3, §4
# Haematococcus pluvialis = test: Oil content by Nile Red staining with hormone supplements (Example 3); conditions: 1 week, ratio to average of two controls, triplicate
# Method: as §5
# (§6) Algal cells of Chlamydomonas reinhardtii, Phaeodactylum tricornutum and Haematococcus pluvialis, were each grown to a concentration of 10^5 cells/ml and divided into 7×250-ml flasks, each containing 50 ml medium with the following supplements (all values are final hormone concentrations):
# (§7) IAA: 1.0 mg/liter, NAA: 1.0 mg/liter, 2,4-D: 1.0 mg/liter, 6-BAP: 0.1 mg/liter, and Kinetin: 0.1 mg/liter.
# (§8) Oil content was measured in triplicate 1 week after addition of the hormones to the medium, using Nile Red staining: 200 μl of algal cells were placed in a 96-well plate (Costar 3596), mixed with 10 μl of Nile Red solution (N3013, Sigma. 1 mg/ml stock in acetone) and incubated for 10 minutes at room-temperature. Fluorescence was measured using a Thermo Electron Fluroskan Ascent with excitation at 485 nm and emission at 590 nm 200 μl of fresh growth media with 10 μl of Nile Red were used for blank measurements. Fluorescence was normalized against cell density as measured by an EL×808 microplate reader (BIOTEK Instruments Inc) at 630 nm and verified by cell count of selected samples. For each treatment the normalized oil content was defined as the oil content divided by the cell density. The average of the normalized oil content of the triplicates for each treatment was calculated. The effect of each treatment was determined by the ratio between the average of the normalized oil content and the average of the two control experiments.
# [3] = test system: Chlamydomonas reinhardtii; test: as above; conditions: 1 week, ratio to average of two controls, triplicate
# Method: as §5, §6, §7, §8
# [4] = test system: Phaeodactylum tricornutum; test: as above; conditions: 1 week, ratio to average of two controls, triplicate
# Method: as §5, §6, §7, §8
SMILES,Cell density ([1]; supplement 0.05 mg/l),Cell density ([1]; supplement 0.1 mg/l),"Oil content ([2]; supplement 0.05 mg/l, 1 week)",Average normalized oil content ([2]; supplement 0.05 mg/l),Normalized oil content ([2]; supplement 0.05 mg/l),Effect ([2]; supplement 0.05 mg/l),"Oil content ([2]; supplement 0.1 mg/l, 1 week)",Average normalized oil content ([2]; supplement 0.1 mg/l),Normalized oil content ([2]; supplement 0.1 mg/l),Effect ([2]; supplement 0.1 mg/l),Effect of addition of hormones to growth medium on oil content (Haematococcus pluvialis; supplement 0.1 mg/l),Effect of addition of hormones to growth medium on oil content ([3]; supplement 0.1 mg/l),Effect of addition of hormones to growth medium on oil content ([4]; supplement 0.1 mg/l),Cell density ([1]; supplement 0.5 mg/l),Cell density ([1]; supplement 1.0 mg/l),"Oil content ([2]; supplement 0.5 mg/l, 1 week)",Average normalized oil content ([2]; supplement 0.5 mg/l),Effect of addition of hormones to growth medium on oil content (Haematococcus pluvialis; supplement 1 mg/l),Effect of addition of hormones to growth medium on oil content ([3]; supplement 1 mg/l),Effect of addition of hormones to growth medium on oil content ([4]; supplement 1 mg/l),other results
"c1ccc(CNc2ncnc3nc[nH]c23)cc1 [6-BAP, 6-Benzylaminopurine]",0.29 and 0.27,0.28 and 0.27,2.709 and 2.587,9.41,9.28 and 9.55,1.29 ± 0.02,3.04 and 2.891,10.65,10.74 and 10.55,1.46 ± 0.02,1.28 ± 0.20,1.22 ± 0.13,1.32 ± 0.20,,,,,,,,
"O=C(O)Cc1c[nH]c2ccccc12 [IAA, Indole-3-acetic acid]",,,,,,,,,,,,,,0.29 and 0.26,0.33 and 0.30,2.747 and 2.748,10.17,0.96 ± 0.15,1.05 ± 0.11,0.97 ± 0.04,"Normalized oil content ([2]; supplement 0.5 mg/l): 9.57 and 10.78; Effect ([2]; supplement 0.5 mg/l): 1.39 ± 0.11; Oil content ([2]; supplement 1.0 mg/l, 1 week): 3.283 and 3.635; Average normalized oil content ([2]; supplement 1.0 mg/l): 10.92; Normalized oil content ([2]; supplement 1.0 mg/l): 9.89 and 11.96; Effect ([2]; supplement 1.0 mg/l): 1.49 ± 0.20"
"O=C(O)COc1ccc(Cl)cc1Cl [2,4-D, 2,4-dichlorophenoxy acetic acid]",,,,,,,,,,,,,,,,,,1.69 ± 0.51,1.21 ± 0.03,1.09 ± 0.04,
"O=C(O)Cc1cccc2ccccc12 [NAA, α-Naphthaleneacetic acid]",,,,,,,,,,,,,,0.32 and 0.29,0.31 and 0.30,2.677 and 2.59,8.67,1.49 ± 0.35,0.99 ± 0.01,0.90 ± 0.07,"Normalized oil content ([2]; supplement 0.5 mg/l): 8.44 and 8.90; Effect ([2]; supplement 0.5 mg/l): 1.19 ± 0.04; Oil content ([2]; supplement 1.0 mg/l, 1 week): 3.059 and 3.232; Average normalized oil content ([2]; supplement 1.0 mg/l): 10.36; Normalized oil content ([2]; supplement 1.0 mg/l): 9.84 and 10.88; Effect ([2]; supplement 1.0 mg/l): 1.42 ± 0.10"
c1coc(CNc2ncnc3[nH]cnc23)c1 [Kinetin],0.31 and 0.28,0.29 and 0.27,3.023 and 3.071,10.47,9.85 and 11.09,1.43 ± 0.12,3.503 and 3.38,12.24,11.91 and 12.57,1.67 ± 0.06,1.09 ± 0.03,1.23 ± 0.03,1.19 ± 0.02,,,,,,,,"increase compared to controls (oil content) ([2]; 0.1 mg/liter, 1 week, maximum effect): 67%"
